What was measured:
[1] = Body and organ weights, healthy mice; format: in vivo, Swiss mice; details: 7 days
Description: (§1) Body weights (n = 10 mice/group) were determined at the first and last days of treatment. Organ weight alterations (n = 10 mice/group), and hematological and biochemical analysis (n = 5 mice/group) were performed on the last day of experimentation. All systemic toxicological analyses were also performed with 4 healthy animal groups, without the inoculation of S-180, (n = 5 mice/group) treated with 5% DMSO (i.p.), 5-FU 25 mg/Kg/day (i.p.), perillaldehyde 8,9-epoxide 100 mg/kg/day (i.p.) and perillaldehyde 8,9-epoxide 200 mg/kg/day for consecutive 7 days.
(§2) Twenty four hours after the seventh treatment day, blood samples of the animals were collected (retro-orbital plexus) with anesthetized mice (1.5%, isoflurane). Immediately after blood collection the animals were euthanized, and their organs (liver, spleen and kidneys) were removed and weighed. The wet mass of each organ was expressed as grams per 100 grams of body mass and compared to the negative control group.

[2] = Biochemical parameters in blood, mice with S-180 tumor cells; format: in vivo, Swiss mice; details: 7 days; for ALT / AST / Creatinine / Urea: mice with S-180 tumor cells
Description: as §1, §2
(§3) For evaluation of the effect of perillaldehyde 8,9-epoxide on the biochemical parameters aspartate aminotransferase (AST) and alanine aminotransferase (ALT) enzymatic to investigate liver function alterations, creatinine and urea were measured as renal function parameters. For this test, blood samples of the animals were collected without anticoagulant, centrifuged for 10 min at 3500 rpm and 25 °C to obtain […].
(§4) The Clinical Chemistry® kits (Abbott Architect; C8000; Abbott Laboratories, Wiesbaden, Germany) were used for biochemical evaluation of serum samples.

[3] = Hematological parameters in blood, healthy mice; format: in vivo, Swiss mice; details: 7 days
Description: as §1, §2
(§5) For hematological analyses, an aliquot of blood from each animal was placed in ethylene diamine tetracetic acid (EDTA). Hematological parameters, including the total as well as differential counts of leukocytes, including eosinophils, lymphocytes, neutrophils and monocytes determined by standard manual procedures using optical light microscopy.

[4] = Histopathological and macroscopic analyses of livers, kidneys and spleens; format: in vivo, Swiss mice
Description: After being weighed and fixed in 10% formaldehyde; tumors, livers, spleens, and kidneys were submitted for assessment macroscopic (size, coloration and hemorrhage), were cut into small pieces and, after that dehydrated in alcohol, diaphanized in xylene and paraffin-embedded. Subsequently, 5-µm-thick histological sections were obtained and stained with hematoxylin and eosin. Histological analyses were performed by light microscopy in order to assess possible damage caused by treatment.

[5] = tested on: sarcoma 180 tumor cells (S-180); test: In vivo antitumor activity assay, sarcoma 180 tumor growth in mice; parameters: species or system Swiss mice; details: 7 consecutive days
Description: Sarcoma 180 (S-180) tumor cells, were obtained through at the Federal University of Ceará, Brazil and maintained in the abdominal cavities of Swiss mice in their ascitic form by ten days.
The effect on tumor growth in vivo was assessed using S-180 ascites tumor cells, according standard protocol. Ten-day-old S-180 ascites tumor cells (2 × 10^6 cells per 0.5 mL) were inoculated subcutaneously into the right axillary region of animals. After 24 h, the animals were separated into 5 groups (n = 10 mice/group) and subjected to intraperitoneal (i.p.) treatment for 7 consecutive days (once a day). Group 1 consisted of animals treated by intraperitoneal (i.p.) administration of negative control—5% Dimethyl sulfoxide (DMSO); Group 2 consisted of animals treated by i.p. administration of positive control—5-fluorouracil 25 mg/kg/day (5-FU; purity > 99%; Sigma Chemical Co., St. Louis, MO, USA); Group 3 consisted of animals treated by i.p. administration of perillaldehyde 8,9-epoxide at 100 mg/kg/day; Group 4 consisted of animals treated by i.p. administration of perillaldehyde 8,9-epoxide at 200 mg/kg/day; Group 5 consisted of animals treated by i.p. administration of perillyl alcohol at 100 mg/kg/day; Group 6 consisted of animals treated by i.p. administration of perillyl alcohol at 200 mg/kg/day. At 24 h from the last day of treatment, under 1.5% isoflurane inhalation anesthesia, the mice were euthanized, and the tumors were weighed. The inhibition ratio of tumor growth (%) was calculated by the following equation: (%) = [(NC − TG)/NC] × 100, where NC is the average tumor weight of the negative control group and TG is the average tumor weight of the treated group.

[6] = Body and organ weights, mice transplanted with S-180 tumor cells; format: in vivo, Swiss mice; details: 7 days
Description: as §1, §2

[7] = Biochemical parameters in blood, healthy mice; format: in vivo, Swiss mice; details: 7 days
Description: as §1, §2, §3, §4

[8] = Hematological parameters in blood, mice with S-180 tumor; format: in vivo, Swiss mice; details: 7 days; for Differential Count of Leukocytes, Eosinophil / Differential Count of Leukocytes, Lymphocyte / Differential Count of Leukocytes, Monocyte / Differential Count of Leukocytes, Neutrophil / Total Leukocytes: mice with S-180 tumor
Description: as §1, §2, §5

[9] = tested on: 4 cancer cell lines (colon carcinoma, ovarian adenocarcinoma, glioblastoma, and leukemia); parameters: method as in PMID 26197313; details: all of the 4 cell lines studied; cited from earlier work
[10] = tested on: three human tumor cell lines (ovarian adenocarcinoma, colon carcinoma, glioblastoma); parameters: method as in PMID 26197313; details: in vitro; cited from earlier work
[11] = mice with tumor S-180, 25 mg/kg/day i.p.
[12] = mice with tumor S-180, 100 mg/kg/day i.p.
[13] = mice with tumor S-180, 200 mg/kg/day i.p.

O=c1[nH]cc(F)c(=O)[nH]1 [5-FU, 5-fluorouracil, reference compound]
Kidney ([1]; 25 mg/kg/day i.p.): 1.13 ± 0.03 g/100 g Body Mass
Liver ([1]; 25 mg/kg/day i.p.): 4.65 ± 0.21 g/100 g Body Mass
Spleen ([1]; 25 mg/kg/day i.p.): 0.19 ± 0.02 g/100 g Body Mass
Variation Body in Mass ([1]; 25 mg/kg/day i.p.): -3.50 ± 0.66 g
ALT ([2]; 25 mg/kg/day i.p.): 42.8 ± 0.6 U/L
AST ([2]; 25 mg/kg/day i.p.): 164.4 ± 10.0 U/L
Creatinine ([2]; 25 mg/kg/day i.p.): 0.28 ± 0.09 mg/dL
Urea ([2]; 25 mg/kg/day i.p.): 50.71 ± 2.18 mg/dL
Differential Count of Leukocytes, Eosinophil ([3]; 25 mg/kg/day i.p.): 0%
Differential Count of Leukocytes, Lymphocyte ([3]; 25 mg/kg/day i.p.): 95.8 ± 0.70 %
Differential Count of Leukocytes, Monocyte ([3]; 25 mg/kg/day i.p.): 1.2 ± 0.70%
Differential Count of Leukocytes, Neutrophil ([3]; 25 mg/kg/day i.p.): 3.0 ± 0.70 %
Total Leukocytes ([3]; 25 mg/kg/day i.p.): 2.37 ± 0.77 * 10^3 Cells/µL
macroscopic observation of the spleens ([4]; 25 mg/kg/day i.p., 7 days): Visible atrophy
tumor growth inhibition rate ([5]; 25 mg/kg/day i.p.): 68.1%
mean tumor mass ([5]; 25 mg/kg/day i.p., 24 h after last treatment, NC 1.18 ± 0.07 g): 0.36 ± 0.02 g
Kidney [6, 11]: 1.15 ± 0.04 g/100 g Body Mass
Liver [6, 11]: 4.99 ± 0.16 g/100 g Body Mass
Spleen [6, 11]: 0.33 ± 0.02 g/100 g Body Mass
Variation Body in Mass [6, 11]: -4.46 ± 0.83 g
ALT ([7]; 25 mg/kg/day i.p.): 47.25 ± 2.8 U/L
AST ([7]; 25 mg/kg/day i.p.): 102.0 ± 15.06 U/L
Creatinine ([7]; 25 mg/kg/day i.p.): 0.37 ± 0.02 mg/dL
Urea ([7]; 25 mg/kg/day i.p.): 49.00 ± 5.86 mg/dL
Differential Count of Leukocytes, Eosinophil ([8]; 25 mg/kg/day i.p.): 0%
Differential Count of Leukocytes, Lymphocyte ([8]; 25 mg/kg/day i.p.): 89.0 ± 0.70 %
Differential Count of Leukocytes, Monocyte ([8]; 25 mg/kg/day i.p.): 0.8 ± 0.37%
Differential Count of Leukocytes, Neutrophil ([8]; 25 mg/kg/day i.p.): 10.2 ± 0.54 %
Total Leukocytes ([8]; 25 mg/kg/day i.p.): 2.50 ± 0.32 ^# 10^3 Cells/µL

CC1([C@@H]2CC=C(C=O)CC2)CO1 (stereo partly shown) [perillaldehyde 8,9-epoxide]
IC50 (median inhibitory concentration able to induce 50% of maximal effect) [9]: less than 4.0 µg/mL
Kidney ([1]; 100 mg/kg/day i.p.): 1.15 ± 0.06 g/100 g Body Mass
Liver ([1]; 100 mg/kg/day i.p.): 4.66 ± 0.09 g/100 g Body Mass
Spleen ([1]; 100 mg/kg/day i.p.): 0.25 ± 0.01 g/100 g Body Mass
Variation Body in Mass ([1]; 100 mg/kg/day i.p.): 0.90 ± 0.38 g
Kidney ([1]; 200 mg/kg/day i.p.): 1.17 ± 0.19 g/100 g Body Mass
Liver ([1]; 200 mg/kg/day i.p.): 5.07 ± 0.13 g/100 g Body Mass
Spleen ([1]; 200 mg/kg/day i.p.): 0.37 ± 0.06 g/100 g Body Mass
Variation Body in Mass ([1]; 200 mg/kg/day i.p.): -0.71 ± 0.53 g
changes in hepatic and renal parameters (AST, ALT, urea, creatinine; in words) ([2]; healthy and S-180 mice, at the doses tested (100 and 200 mg/kg/day i.p.)): does not cause changes in hepatic and renal parameters
ALT ([2]; 100 mg/kg/day i.p.): 35.0 ± 2.2 U/L
AST ([2]; 100 mg/kg/day i.p.): 178.0 ± 5.0 U/L
Creatinine ([2]; 100 mg/kg/day i.p.): 0.34 ± 0.01 mg/dL
Urea ([2]; 100 mg/kg/day i.p.): 43.0 ± 1.08 mg/dL
ALT ([2]; 200 mg/kg/day i.p.): 36.0 ± 3.5 U/L
AST ([2]; 200 mg/kg/day i.p.): 208.3 ± 20.6 U/L
Creatinine ([2]; 200 mg/kg/day i.p.): 0.33 ± 0.02 mg/dL
Urea ([2]; 200 mg/kg/day i.p.): 47.80 ± 2.01 mg/dL
Differential Count of Leukocytes, Eosinophil ([3]; 100 mg/kg/day i.p.): 0%
Differential Count of Leukocytes, Lymphocyte ([3]; 100 mg/kg/day i.p.): 86.0 ± 1.68 %
Differential Count of Leukocytes, Monocyte ([3]; 100 mg/kg/day i.p.): 1.5 ± 0.86%
Differential Count of Leukocytes, Neutrophil ([3]; 100 mg/kg/day i.p.): 12.5 ± 1.08 %
Total Leukocytes ([3]; 100 mg/kg/day i.p.): 3.12 ± 0.38 * 10^3 Cells/µL
Differential Count of Leukocytes, Eosinophil ([3]; 200 mg/kg/day i.p.): 0%
Differential Count of Leukocytes, Lymphocyte ([3]; 200 mg/kg/day i.p.): 89.5 ± 0.65 %
Differential Count of Leukocytes, Monocyte ([3]; 200 mg/kg/day i.p.): 1.3 ± 0.25%
Differential Count of Leukocytes, Neutrophil ([3]; 200 mg/kg/day i.p.): 9.2 ± 0.85 %
Total Leukocytes ([3]; 200 mg/kg/day i.p.): 2.62 ± 0.47 * 10^3 Cells/µL
Histopathological analyses of the liver, spleen, and kidneys (morphology) ([4]; light microscopy, hematoxylin-eosin, after 7 days i.p. treatment): free from any morphological changes
tumor growth inhibition rate ([5]; 100 mg/kg/day i.p.): 38.4%
tumor growth inhibition rate ([5]; 200 mg/kg/day i.p.): 58.7%
changes in body or organ masses (in words) ([6]; healthy and S-180 mice, 100 and 200 mg/kg/day i.p.): did not cause changes in body or organ masses
Kidney [6, 12]: 1.27 ± 0.03 g/100 g Body Mass
Liver [6, 12]: 4.84 ± 0.07 g/100 g Body Mass
Spleen [6, 12]: 0.52 ± 0.02 g/100 g Body Mass
Variation Body in Mass [6, 12]: 1.11 ± 0.19 g
Kidney [6, 13]: 1.28 ± 0.03 g/100 g Body Mass
Liver [6, 13]: 4.57 ± 0.09 g/100 g Body Mass
Spleen [6, 13]: 0.49 ± 0.04 g/100 g Body Mass
Variation Body in Mass [6, 13]: -1.58 ± 0.33 g
ALT ([7]; 100 mg/kg/day i.p.): 55.25 ± 6.26 U/L
AST ([7]; 100 mg/kg/day i.p.): 100.5 ± 5.97 U/L
Creatinine ([7]; 100 mg/kg/day i.p.): 0.34 ± 0.01 mg/dL
Urea ([7]; 100 mg/kg/day i.p.): 54.25 ± 3.82 mg/dL
ALT ([7]; 200 mg/kg/day i.p.): 47.75 ± 4.64 U/L
AST ([7]; 200 mg/kg/day i.p.): 78.75 ± 3.17 U/L
Creatinine ([7]; 200 mg/kg/day i.p.): 0.34 ± 0.01 mg/dL
Urea ([7]; 200 mg/kg/day i.p.): 41.00 ± 4.42 mg/dL
effect on total leukocyte count (in words) ([8]; healthy mice and mice with S-180, at the doses tested (100 and 200 mg/kg/day i.p.)): caused leukopenia
Differential Count of Leukocytes, Eosinophil ([8]; 100 mg/kg/day i.p.): 0%
Differential Count of Leukocytes, Lymphocyte ([8]; 100 mg/kg/day i.p.): 73.2 ± 2.17 %
Differential Count of Leukocytes, Monocyte ([8]; 100 mg/kg/day i.p.): 0.6 ± 0.40%
Differential Count of Leukocytes, Neutrophil ([8]; 100 mg/kg/day i.p.): 26.2 ± 5.92 %
Total Leukocytes ([8]; 100 mg/kg/day i.p.): 5.30 ± 0.37 ^# 10^3 Cells/µL
Differential Count of Leukocytes, Eosinophil ([8]; 200 mg/kg/day i.p.): 0%
Differential Count of Leukocytes, Lymphocyte ([8]; 200 mg/kg/day i.p.): 80.6 ± 2.54 %
Differential Count of Leukocytes, Monocyte ([8]; 200 mg/kg/day i.p.): 0.8 ± 0.34%
Differential Count of Leukocytes, Neutrophil ([8]; 200 mg/kg/day i.p.): 18.6 ± 6.18 %
Total Leukocytes ([8]; 200 mg/kg/day i.p.): 6.50 ± 0.65 ^# 10^3 Cells/µL
inhibition percentage (GI%) compared with perillyl alcohol [10]: higher inhibition percentage in all cell lines tested

C=C(C)[C@@H]1CC=C(CO)CC1 [perillyl alcohol, (S)-(−)-perillyl alcohol]
tumor growth inhibition rate ([5]; 100 mg/kg/day i.p.): 35.3%
tumor growth inhibition rate ([5]; 200 mg/kg/day i.p.): 45.4%

Source: paper PMC4730278, “In Vivo Anti-Tumor Activity and Toxicological Evaluations of Perillaldehyde 8,9-Epoxide, a Derivative of Perillyl Alcohol” (International Journal of Molecular Sciences, 2016)
